US8765779B2, “Tricyclic derivatives and their pharmaceutical use and compositions” (Cephalon, Inc., priority 2009, dated 2014)

Target: T1, human 5-HT6 receptor (Homo sapiens, UniProt P50406)
T1 construct: host or cells: CHO-K1 cells, stably transfected; membranes prepared in house
Test: Human 5-HT6 Receptor Binding Assay ([3H]LSD displacement, scintillation beads)
Conditions: membranes of CHO-K1 cells with recombinant human 5-HT6, 4 nM [3H]LSD; Table 1, class symbols; read-out: h5-HT6 (Ki)
Method: Human 5-HT6 Receptor Binding Assay
Membranes were prepared from CHO—K1 cells stably transfected with the human 5-HT6 receptor (Euroscreen; ES-316-C). The cells were grown in Gibco Advanced DMEM-F12 (Cat#12634010) containing 2% dialyzed FBS (Hyclone Cat#SH30079.03). The cells were harvested in phosphate buffered saline (PBS) containing 0.1 mM EDTA and pelleted by centrifugation (1000×g), the supernatant was discarded and the pellets were stored at −80° C. prior to membrane preparation. Membranes were prepared as previously described (J Bio Chem. 1992, 267 (14) 9844-51). Briefly, frozen cell pellet was resuspended in a lysis buffer containing 5 mM Tris-HCl (pH 7.5), 5 mM EDTA and 1 complete EDTA-free protease inhibitor tablet (Roche Applied Science, Indianapolis, Ind.) per 50 mL buffer, and homogenized with a tissue homogenizer. The cell lysate was then centrifuged at 40,000×g for 30 min at 4° C. to collect the membranes. The membrane pellets were washed in membrane buffer (50 mM Tris-HCl (pH 7.5), 0.6 mM EDTA, 5 mM MgCl2, 1 complete EDTA-free protease inhibitor tablet per 50 mL buffer) using a tissue homogenizer. The membranes were centrifuged at 40,000×g for 30 min at 4° C. and the pellets were resuspended in membrane buffer containing 250 mM sucrose, and protein concentration was determined using the Coomassie Plus kit (Pierce Biotechnology, Rockford, Ill.).
Membranes prepared from cells expressing recombinant human 5-HT6 receptor (h5-HT6) were resuspended in assay buffer containing 50 mM Tris HCl, (pH7.4), 4 mM CaCl2, 10 μg/mL saponin, and 0.1% (w/v) ascorbic acid. Membranes were preincubated using 1.75 μg membrane protein and 0.25 mg FlashBlue scintillation beads (PerkinElmer catalogue #FB001) per well at 4° for 30 min. […] Test compounds or assay controls for total and non-specific binding were diluted in DMSO as 100× solutions and serially diluted by half log concentrations on a Perkin Elmer JANUS Automated Workstation. Serotonin (10 μM final concentration) was used to determine non-specific binding in the assay. Plates were read using the Microbeta Trilux 1450 LSC and luminescence counter. Data were analyzed by nonlinear […] using the dose-response equation (variable slope) to calculate IC50 in XLfit4 (ID Business Solutions Inc.): y=(Bottom+((Top−Bottom)/(1+((IC50/x)^Hill slope))))
Ki value was then calculated according to the Cheng-Prusoff method using the equation below (Cheng and Prusoff, 1973): Ki,app=IC50/(1+[radioligand]/Kd))

T1 sequence (P50406 whole entry): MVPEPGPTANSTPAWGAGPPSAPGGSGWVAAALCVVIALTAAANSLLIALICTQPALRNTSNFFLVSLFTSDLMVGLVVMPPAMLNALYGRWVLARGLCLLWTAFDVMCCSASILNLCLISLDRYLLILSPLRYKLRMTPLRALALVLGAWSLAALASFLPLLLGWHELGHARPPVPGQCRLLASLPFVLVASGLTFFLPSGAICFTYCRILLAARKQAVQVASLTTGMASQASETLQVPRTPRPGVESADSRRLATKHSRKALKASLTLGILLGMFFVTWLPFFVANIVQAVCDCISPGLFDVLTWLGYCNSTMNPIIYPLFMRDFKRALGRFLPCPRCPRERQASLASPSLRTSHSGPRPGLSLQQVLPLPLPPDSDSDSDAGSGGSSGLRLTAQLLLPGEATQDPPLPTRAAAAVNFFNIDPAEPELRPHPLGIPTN

`CC12CCNCC1Oc1ccc(OS(=O)(=O)c3ccccc3C(F)(F)F)cc12` (stereo not shown) [Example 779] and `CC12CCNCC1Oc1ccc(OS(=O)(=O)c3ccc(C(F)(F)F)cc3)cc12` (stereo not shown) [Example 778] cannot be ordered by Ki: > 1000 nM for the first, > 1000 nM for the second.

`O=S(=O)(c1cc(F)cc(F)c1)c1ccc2c(c1)OC1CNCCC21` (stereo not shown) [Example 158] and `CCOc1cc(F)cc(S(=O)(=O)c2ccc3c(c2)OC2CNCCC32)c1` (stereo not shown) [Example 413] cannot be ordered by Ki: < 500 nM for the first, < 500 nM for the second.

`O=[N+]([O-])c1ccc(S(=O)(=O)c2ccc3c4c(oc3c2)CNCC4)cc1` [Example 205] and `O=S(=O)(c1ccc2c3c(oc2c1)CNCC3)c1cccc2ccccc12` [Example 202] cannot be ordered by Ki: < 500 nM for the first, < 500 nM for the second.

`O=S(=O)(c1ccc2c3c(oc2c1)CNCC3)c1cccnc1Cl` [Example 436] and `O=S(=O)(c1ccc2c3c(oc2c1)CNCC3)c1cccnc1OCC(F)(F)F` [Example 440] cannot be ordered by Ki: < 500 nM for the first, < 500 nM for the second.

`O=S(=O)(c1ccc2c(c1)OC1CNCCC21)c1ccc2ccccc2c1` (stereo not shown) [Example 122] and `O=S(=O)(Oc1ccc2c(c1)OC1CNCCC21)c1ccc2ccccc2c1` (stereo not shown) [Example 661] cannot be ordered by Ki: < 500 nM for the first, < 500 nM for the second.

`O=S(=O)(c1ccc2c(c1)OC1CNCCC21)c1cccc2cccnc12` (stereo not shown) [Example 332] and `O=S(=O)(c1ccc2c(c1)OC1CNCCC21)c1cccc(Cl)c1F` (stereo not shown) [Example 422] cannot be ordered by Ki: < 500 nM for the first, < 500 nM for the second.

`COc1cccc(S(=O)(=O)c2ccc3c(c2)OC2CNCCC32C)c1` (racemic) [Example 4, 7-[(3-methoxyphenyl)sulfonyl]-4a-methyl-1,2,3,4,4a,9a-hexahydro[1]benzofuro[2,3-c]pyridine] and `CCOc1cccc(S(=O)(=O)c2ccc3c(c2)OC2CNCCC32C)c1` (racemic) [Example 10, 7-[(3-ethoxyphenyl)sulfonyl]-4a-methyl-1,2,3,4,4a,9a-hexahydro[1]benzofuro[2,3-c]pyridine] cannot be ordered by Ki: < 500 nM for the first, < 500 nM for the second.

`O=S(=O)(c1ccccc1)c1ccc2c3c(oc2c1)C1(CCOCC1)NCC3` [Example 296] and `CC(C)Oc1cccc(S(=O)(=O)c2ccc3c4c(oc3c2)C2(CCOCC2)NCC4)c1` [Example 44, 7-{[3-(propan-2-yloxy)phenyl]sulfonyl}-2′,3,3′,4,5′,6′-hexahydro-2H-spiro[1-benzofuro[2,3-c]pyridine-1,4′-pyran]] cannot be ordered by Ki: < 500 nM for the first, < 500 nM for the second.

`CC(C)Oc1cccc(S(=O)(=O)c2ccc3c(c2)OC2CNCCC32)c1` (stereo not shown) [Example 159] and `Cc1ccc(S(=O)(=O)c2ccc3c(c2)OC2CNCCC32)cc1` (stereo not shown) [Example 121] cannot be ordered by Ki: < 500 nM for the first, < 500 nM for the second.

Compared with `O=S(=O)(c1ccc2c(c1)C1CCNCC1O2)N1CCc2ccccc2C1` (stereo not shown) [Example 856], `O=S(=O)(c1ccc2c(c1)C1CCNCC1O2)N1CCC2(CC1)OCc1ccccc12` (stereo not shown) [Example 862] is higher in Ki: < 500 nM for the first, > 1000 nM for the second. The first binds more tightly here.

`O=S(=O)(c1ccc2c(c1)OC1CNCCC21)c1cc(F)ccc1F` (stereo not shown) [Example 143] and `O=S(=O)(c1ccc2c(c1)OC1CNCCC21)c1cc(F)cc(F)c1F` (stereo not shown) [Example 412] cannot be ordered by Ki: < 500 nM for the first, < 500 nM for the second.

Compared with `CC12CCNCC1Oc1cc(S(=O)(=O)c3cccc(F)c3F)ccc12` (stereo not shown) [Example 488], `CC12CCNCC1Oc1cc(S(=O)(=O)c3cncc(F)c3)ccc12` (stereo not shown) [Example 429] is higher in Ki: < 500 nM for the first, > 1000 nM for the second.

`O=S(=O)(c1ccc2c3c(oc2c1)CNCC3)c1cccc(F)c1F` [Example 432] and `O=S(=O)(c1ccc2oc3c(c2c1)CCNC3)c1ccccc1F` [Example 277] cannot be ordered by Ki: < 500 nM for the first, < 500 nM for the second.

Compared with `COc1cccc(S(=O)(=O)Nc2ccc3c(c2)C2CCNCC2O3)c1` (stereo not shown) [Example 822], `O=S(=O)(Oc1ccc2c(c1)C1CCNCC1O2)c1cccc(Cl)c1` (stereo not shown) [Example 710] is lower in Ki: > 1000 nM for the first, < 500 nM for the second. The second binds more tightly here.

`COCC1NCCc2c1oc1cc(S(=O)(=O)c3cccc(Cl)c3)ccc21` (stereo not shown) [Example 502] and `CC(=O)N(C)CC1NCCc2c1oc1cc(S(=O)(=O)c3cccc(Cl)c3)ccc21` (racemic) [Example 541, N-({7-[(3-chlorophenyl)sulfonyl]-1,2,3,4-tetrahydro[1]benzofuro[2,3-c]pyridin-1-yl}methyl)-N-methylacetamide] cannot be ordered by Ki: < 500 nM for the first, < 500 nM for the second.

Going from `COc1cc(S(=O)(=O)c2ccc3c4c(oc3c2)C2(CCOC2)NCC4(C)C)c[n+]([O-])c1` (stereo not shown) [Example 453] to `CC1OCCC12NCCc1c2oc2cc(S(=O)(=O)c3cccc(F)c3)ccc12` (single isomer, unassigned) [Example 56, 7-[(3-Fluorophenyl)sulfonyl]-2′-methyl-3,4,4′,5′-tetrahydro-2H-spiro[1-benzofuro[2,3-c]pyridine-1,3′-furan]], the Ki falls from > 1000 nM to < 500 nM. The second binds more tightly here.

`CC1(C)CNCc2oc3cc(S(=O)(=O)c4ccccc4)ccc3c21` [Example 286] and `CC1(C)NCCc2c1oc1cc(S(=O)(=O)c3ccccc3)ccc21` [Example 292] cannot be ordered by Ki: < 500 nM for the first, < 500 nM for the second.

`Cc1ccc(S(=O)(=O)Oc2ccc3c(c2)C2CCNCC2O3)cc1C` (stereo not shown) [Example 706] and `O=S(=O)(Oc1ccc2c(c1)OC1CNCCC21)c1cccc(F)c1` (stereo not shown) [Example 643] cannot be ordered by Ki: < 500 nM for the first, < 500 nM for the second.

`O=S(=O)(c1ccc2c(c1)OC1CNCCC21)c1cccc2c1OCCO2` (stereo not shown) [Example 457] and `O=S(=O)(c1ccc2c(c1)OCCO2)c1cccc2c1OC1CNCCC21` (stereo not shown) [Example 185] cannot be ordered by Ki: < 500 nM for the first, < 500 nM for the second.

`CC1(C)NCCc2c1oc1cc(S(=O)(=O)c3cccc(Cl)c3)ccc21` [Example 17, 7-[(3-chlorophenyl)sulfonyl]-1,1-dimethyl-1,2,3,4-tetrahydro[1]benzofuro[2,3-c]pyridine] and `Cc1cccc(S(=O)(=O)c2ccc3c4c(oc3c2)C(C)(C)NCC4)n1` [Example 19, 1,1-dimethyl-7-[(6-methylpyridin-2-yl)sulfonyl]-1,2,3,4-tetrahydro[1]benzofuro[2,3-c]pyridine] cannot be ordered by Ki: < 500 nM for the first, < 500 nM for the second.

Compared with `O=S(=O)(Oc1ccc2c(c1)OC1CNCCC21)c1cc2ccccc2o1` (stereo not shown) [Example 655], `CC12CCNCC1Oc1ccc(OS(=O)(=O)c3cc4ccccc4o3)cc12` (stereo not shown) [Example 764] is higher in Ki: < 500 nM for the first, 500 to 1000 nM for the second. The first binds more tightly here.

`O=S(=O)(c1ccccc1)c1ccc2c(c1)C1CCNCC1O2` (stereo not shown) [Example 181, 6-(phenylsulfonyl)-1,2,3,4,4a,9a-hexahydro[1]benzofuro[2,3-c]pyridine] and `O=S(=O)(c1ccc(-c2ccccc2)cc1)c1ccc2c(c1)OC1CNCCC21` (stereo not shown) [Example 145] cannot be ordered by Ki: > 1000 nM for the first, > 1000 nM for the second.

`CC12CCN(C3CCC3)CC1Oc1ccc(OS(=O)(=O)Cc3ccccc3)cc12` (stereo not shown) [Example 805] and `CC12CCNCC1Oc1ccc(OS(=O)(=O)Cc3ccc(Cl)cc3)cc12` (stereo not shown) [Example 789] cannot be ordered by Ki: > 1000 nM for the first, > 1000 nM for the second.

First: [O-][S+](c1ccc(OC(F)(F)F)cc1)c1ccc2c3c(oc2c1)CNCC3 (stereo not shown) [Example 226, 7-{[4-(trifluoromethoxy)phenyl]sulfi-nyl}-1,2,3,4-tetrahydro[1]benzofuro[2,3-c]pyridine]
Second: O=S(=O)(c1ccc2oc3c(c2c1)CCNC3)c1cc(F)ccc1F [Example 273]
The Ki of the first is higher: > 1000 nM for the first, < 500 nM for the second. The second binds more tightly here.

`O=S(=O)(c1ccc2c(c1)C1CCNCC1O2)N1CCC2CCCCC2C1` (stereo not shown) [Example 860] and `COc1cc2c(cc1OC)CN(S(=O)(=O)c1ccc3c(c1)C1CCNCC1O3)CC2` (stereo not shown) [Example 859] cannot be ordered by Ki: > 1000 nM for the first, > 1000 nM for the second.

First: O=S(=O)(Nc1cccc2ccccc12)c1ccc2c(c1)C1CCNCC1O2 (stereo not shown) [Example 837]
Second: O=S(=O)(c1ccc2c(c1)OC1CNCCC21)c1ccccc1-c1ccccc1 (stereo not shown) [Example 153]
The Ki of the first is higher: > 1000 nM for the first, < 500 nM for the second.

First: O=S(=O)(c1cccc(Cl)c1Cl)c1cccc2c1OC1CNCCC21 (stereo not shown) [Example 338]
Second: [O-][S+](c1cncc(Cl)c1)c1ccc2c(c1)OC1CNCCC21 (stereo not shown) [Example 391]
The Ki of the first is lower: < 500 nM for the first, > 1000 nM for the second. The first binds more tightly here.

`CC1OCCC12NCCc1c2oc2cc(S(=O)(=O)c3cccc(F)c3)ccc12` (single isomer, unassigned) [Example 58, 7-[(3-Fluorophenyl)sulfonyl]-2′-methyl-3,4,4′,5′-tetrahydro-2H-spiro[1-benzofuro[2,3-c]pyridine-1,3′-furan]] and `CC1NCCc2c1oc1ccc(S(=O)(=O)c3cccc(C(F)(F)F)c3)cc21` (stereo not shown) [Example 282] cannot be ordered by Ki: < 500 nM for the first, < 500 nM for the second.

With `COc1cc(OC(C)C)cc(S(=O)(=O)c2ccc3c(c2)OC2CN(C4CCC4)CCC32)c1` (stereo not shown) [Example 612] the Ki was < 500 nM.

Same assay, conditions: membranes of CHO-K1 cells with recombinant human 5-HT6, 4 nM [3H]LSD; specific data; read-out: h5-HT6 (Ki)

For `O=S(=O)(c1cccc(F)c1)c1ccc2c3c([nH]c2c1)C(C(F)(F)F)NCC3` (stereo not drawn) [Example 527, 7-[(3-fluorophenyl)sulfonyl]-1-(trifluoromethyl)-2,3,4,9-tetrahydro-1H-beta-carboline], the Ki was 93 nM.
